“Also recorded” adds a separate entry of the source. Like-named read-outs stand apart in the source and are kept apart here.

Data on six compounds can be found in article PMC7179434, “1,2,4-Triazolo[1,5-a]pyrimidines as a Novel Class of Inhibitors of the HIV-1 Reverse Transcriptase-Associated Ribonuclease H Activity” (Molecules, 2020).

One data set addresses HIV-1 RNase H. Details: method as in ref 17-25, 27-29 (per compound as in Figure 1 legend). Conditions: known allosteric RNHIs, 27-29 (per compound as in Figure 1 legend), cited from earlier work.
The subject of the next data set is HIV-1 RDDP. More on the design: method as in ref 17-21, 27-29 (per compound as in Figure 1 legend). To be noted: known allosteric RNHIs; 27-29 (per compound as in Figure 1 legend); cited from earlier work.
A further data set deals with HIV-1 replication. Conditions: cited from earlier work.
In another data set the test system is cell growth. Details: method as in PMID 17184135, PMID 23631411. Conditions: concentration that inhibits cell growth by 50%; read-out: CC50 (cytotoxicity); cited from earlier work.
Data set [1] deals with HIV-1 RT-associated RNase H (Human immunodeficiency virus type 1 group M subtype B, UniProt P03366). Nature of the data set: biochemical. Format: biochemical.
The next data set addresses HIV-2 RNase H. More on the design: method as in PMID 18831589. Conditions: cited from earlier work.
A further data set deals with HIV-1 RT-associated RDDP (Human immunodeficiency virus type 1 group M subtype B, UniProt P03366). Nature of the data set: biochemical. Format: biochemical.
In the next data set the test system is HIV-1 (IIIB strain). Format: cell-based. To be noted: acutely infected MT-4 cells.
Another data set has as its system HIV-2 (ROD strain). Description: Anti-HIV-2 activity in acutely infected MT-4 cells (MTT). Format: cell-based.
Another data set in a line: in vitro. To be noted: human.
Setting [2] is: 28 (per compound as in Figure 1 legend).

In the case of `COc1ccc2ccccc2c1/C=N/NC(=O)c1ccc(O)c(O)c1` [Compound 1], the IC50 on HIV-1 RNase H is 500 nM; in the data set with HIV-1 RDDP, over 25000 nM. The EC50 in the data set on HIV-1 replication (setting [2]) is 5500 nM. In addition, the CC50 with cell growth is over 100000 nM.
`NC(=O)c1c(N)sc2c1CCCCC2` [Compound 5]: the IC50 was 4000 ± 500 nM in [1]; 2000 to 2500 nM at HIV-1 RNase H; 2000 nM at HIV-1 RNase H (listed as 5 (NSC727447)); 2000 to 2500 nM at HIV-2 RNase H; 2500 nM on HIV-2 RNase H (listed as 5 (NSC727447)). Moreover, the “EC50 (HIV-1 replication)” value in the data set on HIV-1 replication (setting [2]) is given as “not active”. Also, the “selectivity index (SI)” value with HIV-1 replication (anti-HIV-1 activity vs cytotoxicity) is on record as 4.
On to `O=c1[nH]c(-c2ccc(O)c(O)c2)nc2sc3c(c12)CCCCC3` [Compound 7], for which the IC50 at HIV-1 RNase H is 290 nM. Also, the EC50 in the data set with HIV-1 replication (setting [2]) was 1600 nM. Further, in the data set with cell growth, the CC50 is 6800 nM.
Compound `Cc1cc(-c2ccccc2)n2nc(NC(=O)c3ccc(O)c(O)c3)nc2n1` [Compound 12g, 3,4-Dihydroxy-N-(5-methyl-7-phenyl-[1,2,4]triazolo[1,5-a]pyrimidin-2-yl)benzamide] had a melting point of 285 to 288 °C. In data set [1], this compound gave an IC50 of 800 ± 200 nM. Further, on HIV-1 RT-associated RDDP, the IC50 is over 100000 nM. In addition, the “anti-HIV-1 (IIIB strain) activity” value in the data set with HIV-1 (IIIB strain) is given as “did not result in anti-HIV-1 activity in cellular context; also recorded: none of the compounds having RNase H inhibition showed anti-HIV activity at concentrations lower than those cytotoxic”. Further, the “anti-HIV-2 (ROD strain) activity” value in the data set with HIV-2 (ROD strain) is reported as “none of the compounds having RNase H inhibition showed anti-HIV activity at concentrations lower than those cytotoxic”. Moreover, in the data set “in vitro”, the CC50 at 5 days came to 112000 nM.
`Cc1cc(-c2ccc(O)c(O)c2)n2nc(NC(=O)c3ccccc3)nc2n1` [Compound 17h, N-(7-(3,4-dihydroxyphenyl)-5-methyl-[1,2,4]triazolo[1,5-a]pyrimidin-2-yl)benzamide] displayed a melting point of 260 to 263 °C. In [1], the IC50 was 1130 ± 330 nM. The compound also gave an IC50 at HIV-1 RT-associated RDDP of over 100000 nM. Also, the “anti-HIV-1 (IIIB strain) activity” value in the data set on HIV-1 (IIIB strain) is reported as “none of the compounds having RNase H inhibition showed anti-HIV activity at concentrations lower than those cytotoxic”. Further, the “anti-HIV-2 (ROD strain) activity” value in the data set on HIV-2 (ROD strain) is given as “none of the compounds having RNase H inhibition showed anti-HIV activity at concentrations lower than those cytotoxic”.
Take `Cc1cc(-c2ccccc2)n2nc(C(=O)Nc3ccc(O)c(O)c3)nc2n1` [Compound 18g, N-(3,4-Dihydroxyphenyl)-5-methyl-7-phenyl-[1,2,4]triazolo[1,5-a]pyrimidine-2-carboxamide]: the melting point is 278 to 281 °C. Besides, it took 410 ± 5 nM to reach half-maximal inhibition in data set [1] (IC50). Also, the IC50 on HIV-1 RT-associated RDDP was over 100000 nM. Besides, the “anti-HIV-1 (IIIB strain) activity” value in the data set with HIV-1 (IIIB strain) is “did not result in anti-HIV-1 activity in cellular context; also recorded: none of the compounds having RNase H inhibition showed anti-HIV activity at concentrations lower than those cytotoxic”. In the data set on HIV-2 (ROD strain), the “anti-HIV-2 (ROD strain) activity” value is recorded as “none of the compounds having RNase H inhibition showed anti-HIV activity at concentrations lower than those cytotoxic”.

Usually IC50 stands for the point on the concentration scale where inhibition reaches its midpoint. The EC50 is the concentration needed to bring the measured effect to its halfway point. For orientation: melting point means the temperature of the solid-liquid transition.
